In one experiment the target is T1, PI3Kα (Homo sapiens, UniProt P42336).
T1 construct: Full length p110 subunits of PI3K α, β and δ, N-terminally labeled with polyHis tag; polyHis (N); made in house; host or cells: Sf9 insect cells (baculovirus)
Kind of experiment: In vitro PI3K AlphaScreen assay. Type of experiment: biochemical. As to conditions: average if run more than once. On the technique in general: In Alpha technology, singlet oxygen from a donor bead excites a nearby acceptor bead.

In a further experiment the target is T2, mTOR (Homo sapiens, UniProt P42345).
T2 construct: purchased Invitrogen (Carlsbad, Calif.)
Briefly: In vitro mTOR assay (Lanthascreen). Type of experiment: biochemical. As to conditions: average if run more than once. The source says: The Invitrogen (Carlsbad, Calif.) mammalian target of rapamycin (mTOR) Lanthascreen assay can be used to quantitate mTOR kinase activity in an in vitro setting. Active mTOR phosphorylates eukaryotic translation initiation factor 4E binding protein 1 (4E-BP1) on residue threonine 46. This phosphorylation event can be detected with a phospho-specific terbium (Tb) labeled Ab, in turn bringing the Tb label in close proximity to the GFP tagged 4E-BP1 and allowing for time-resolved fluorescence resonance energy transfer (TR-FRET), which correlates 4E-BP1 phosphorylation levels with mTOR kinase activity.
Enzyme reaction buffer can be prepared in deionized water containing 50 mM HEPES (pH 7.5), 0.01% Polysorbate 20, 1 mM EGTA, and 10 mM MnCl2.
Dilutions of the compound to be tested can be prepared in 96-well polypropylene plates (Fisher Scientific, Waltham, Mass.). One row represents a 10-point dose of compound diluted 1:3 in enzyme reaction buffer and 20% dimethyl sulfoxide (DMSO). The top concentration for all compounds is 36 μM. Wells 6 and 12 can serve as the no compound (DMSO only) and high compound controls.
An mTOR substrate solution can prepared in enzyme reaction buffer containing 1600 nM green fluorescent protein tagged eukaryotic translation initiation factor 4E binding protein 1 (GFP-4E-BP1) (Invitrogen, Carlsbad, Calif.) and 28 uM adenosine triphosphate (ATP) (Calbiochem, Gibbstown, N.J.).
mTOR enzyme (Invitrogen, Carlsbad, Calif.) can be diluted in enzyme reaction buffer to a working concentration of 100 ng/mL.
The enzyme assay can be run in 384 well low volume assay plates (Corning, Corning, N.Y.). 2.5 uL of substrate solution containing GFP-4E-BP1 and ATP can be added to appropriate wells in the assay plate followed by 2.5 μL of compound dilutions. 5 μL of appropriately diluted mTOR enzyme can be added and the reaction allowed to proceed for 1 hour at room temperature. Final reagent concentrations in the enzyme assay are 50 ng/mL mTOR, 400 nM GFP-4E-BP1, and 7 μM ATP.
The enzyme assay can be terminated upon the addition of 10 μL of 20 mM EDTA and 4 nM Tb-labeled anti-phospho-4E-BP1 [T46] antibody (Invitrogen, Carlsbad, Calif.). The assay plate can then be incubated at room temperature for 1 hour and results read on a Tecan Safire II plate reader (Tecan, Männedorf, Switzerland).

Experiment [1] has as its system phosphorylation of Akt at Serine 473. Kind of experiment: pAkt AlphaScreen (U87 cell). Type of experiment: cell-based. As to conditions: Homo sapiens, U-87 MG; U87 MG cells, pAkt Ser473; average. The protocol: pAkt Alphascreen (U87 Cell)
The pAkt AlphaScreen® assay (PerkinElmer, Waltham, Mass.) determines whether there is phosphorylation of Akt at Serine 473 by recruitment of a phosphospecific antibody. This assay was performed using U87 MG cells. The U87 growth media consists of MEM (Gibco, Carlsbad, Calif.) supplemented with 10% FBS (Gibco,), 1× Non-Essential Amino Acids (Gibco,) and 1× Penicillin/Streptomycin/Glutamine (Gibco). The cells were maintained weekly using 0.05% Trypsin (Gibco) and replated in 150 mm TC-Treated Culture Dishes (Corning, Corning, N.Y.).
The first day of the assay, the adherent cells were trypsinized, media was added to the loose cells and cells were mixed to a homogenous mixture. 0.5 ml of the homogenous mixture was counted on the Beckman Coulter® Vi-CELL™ XR (Fullerton, Calif.). 50 frames of cells were counted and the number of viable cells was determined. The cells were then diluted to 0.25 million cells per ml, and centrifuged at 200 rcf for 5 minutes. The media was removed and the cells were reconstituted in fresh media for plating. The cells were plated at 20 μl per well on the PerkinElmer® FlexDrop PLUS in Low Volume 384 Well White Tissue Culture Plates (Corning) with a final cell density of 5K cells per well. The plates were incubated overnight at 37° Celsius, 5% CO2.
On the second day, the compound plates were prepared, the cells were treated with compound and the pAkt reaction mix was added to the cell lysate. 384 well compound plates were prepared containing 1 μl of compound per well starting at 5 mM and diluted 1:2 across the row, resulting in a 22 well serial dilution. 39 μl of growth media was added to the compound plate in rows 1-22 using the PerkinElmer® FlexDrop PLUS resulting in a DMSO concentration of 2.5%. The cell plates and diluted compound plates were put onto the VELOCITY11™ VPREP™ 384 ST where the compound plate was mixed and 5 μl of serially diluted compound or controls was added to the cell plate. The final concentration of the compounds was 25 μM serially diluted to 11.9 pM in 0.5% DMSO. The cell plates were then incubated with compound for two hours at 37° Celsius, 5% CO2. After two hours, the media in the cell plates was aspirated using the BioTek® ELx405HT plate washer (Winooski, Vt.) removing the majority of media and compound without disturbing the adherent U87 cells. The following assay reagents are components of the SureFire® Akt (Ser 473) Phosphorylation 50K Point Kit (TGR BioSciences, Adelaide, Austalia) and an IgG Detection Kit (PerkinElmer, Waltham, Mass.). 5 μl of 1× Lysis Buffer was added to each well using the PerkinElmer® FlexDrop PLUS. The plates were then incubated at room temperature on a shaker for ten minutes. The AlphaScreen® reaction was prepared under low light conditions (subdued or green light) including p-Akt (Ser 473) Reaction Buffer, Dilution Buffer, Activation Buffer, Acceptor Beads and Donor Beads at a ratio of 40:20:10:1:1 respectively. The AlphaScreen® reaction was added to the cell lysate at 6 μl per well using the PerkinElmer® FlexDrop PLUS. The plates were placed in a humid environment to reduce edge effects and incubated overnight at room temperature with restricted air flow in the dark.
On the final day of the experiment, the plates were read on the PerkinElmer® EnVision™ 2103 Multilable Reader using the standard AlphaScreen® readout. The POC is calculated and the data is analyzed to report the IC50 IP for pAkt at Serine 473.
Activity data for the compounds tested in the PI3K cell based Akt assay is provided in Table 2 under the column heading U87

These results are taken from US8415376B2, “Inhibitors of PI3 kinase” (Amgen Inc., priority 2008, dated 2013).

The term Ki denotes a dissociation constant, usually derived from enzyme kinetics or from competition with a known ligand. A high value points to lower affinity. The term IC50 denotes the concentration needed to halve the response being measured. High values mean weaker potency, low ones greater potency.

T1 sequence (P42336 whole entry): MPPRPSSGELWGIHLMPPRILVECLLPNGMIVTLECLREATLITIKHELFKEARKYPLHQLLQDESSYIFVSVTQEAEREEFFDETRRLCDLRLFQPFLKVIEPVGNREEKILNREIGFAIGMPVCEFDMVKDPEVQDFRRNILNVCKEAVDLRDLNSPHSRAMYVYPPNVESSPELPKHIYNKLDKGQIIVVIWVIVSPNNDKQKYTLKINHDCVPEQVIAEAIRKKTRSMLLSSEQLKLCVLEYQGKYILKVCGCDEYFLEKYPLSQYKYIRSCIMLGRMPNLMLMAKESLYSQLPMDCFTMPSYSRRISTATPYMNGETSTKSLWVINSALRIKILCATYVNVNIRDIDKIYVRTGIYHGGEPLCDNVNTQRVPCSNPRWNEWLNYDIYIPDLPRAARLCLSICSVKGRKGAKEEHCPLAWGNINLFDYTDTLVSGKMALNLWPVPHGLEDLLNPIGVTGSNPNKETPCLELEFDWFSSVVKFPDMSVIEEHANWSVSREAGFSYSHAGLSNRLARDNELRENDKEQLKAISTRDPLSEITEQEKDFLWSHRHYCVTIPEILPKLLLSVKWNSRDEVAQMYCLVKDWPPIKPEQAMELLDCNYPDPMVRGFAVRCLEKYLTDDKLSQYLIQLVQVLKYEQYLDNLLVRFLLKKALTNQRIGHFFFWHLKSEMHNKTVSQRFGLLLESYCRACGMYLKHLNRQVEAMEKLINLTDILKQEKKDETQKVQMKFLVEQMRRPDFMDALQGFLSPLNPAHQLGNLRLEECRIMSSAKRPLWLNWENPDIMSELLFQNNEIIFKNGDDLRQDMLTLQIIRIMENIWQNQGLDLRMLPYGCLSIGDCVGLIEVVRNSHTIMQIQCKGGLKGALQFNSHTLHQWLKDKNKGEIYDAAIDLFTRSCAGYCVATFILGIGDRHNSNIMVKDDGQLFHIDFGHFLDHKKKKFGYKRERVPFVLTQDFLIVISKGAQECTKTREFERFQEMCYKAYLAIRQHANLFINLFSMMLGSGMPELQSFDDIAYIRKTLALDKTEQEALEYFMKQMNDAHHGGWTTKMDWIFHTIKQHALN
T1 sequence (P27986 whole entry partner): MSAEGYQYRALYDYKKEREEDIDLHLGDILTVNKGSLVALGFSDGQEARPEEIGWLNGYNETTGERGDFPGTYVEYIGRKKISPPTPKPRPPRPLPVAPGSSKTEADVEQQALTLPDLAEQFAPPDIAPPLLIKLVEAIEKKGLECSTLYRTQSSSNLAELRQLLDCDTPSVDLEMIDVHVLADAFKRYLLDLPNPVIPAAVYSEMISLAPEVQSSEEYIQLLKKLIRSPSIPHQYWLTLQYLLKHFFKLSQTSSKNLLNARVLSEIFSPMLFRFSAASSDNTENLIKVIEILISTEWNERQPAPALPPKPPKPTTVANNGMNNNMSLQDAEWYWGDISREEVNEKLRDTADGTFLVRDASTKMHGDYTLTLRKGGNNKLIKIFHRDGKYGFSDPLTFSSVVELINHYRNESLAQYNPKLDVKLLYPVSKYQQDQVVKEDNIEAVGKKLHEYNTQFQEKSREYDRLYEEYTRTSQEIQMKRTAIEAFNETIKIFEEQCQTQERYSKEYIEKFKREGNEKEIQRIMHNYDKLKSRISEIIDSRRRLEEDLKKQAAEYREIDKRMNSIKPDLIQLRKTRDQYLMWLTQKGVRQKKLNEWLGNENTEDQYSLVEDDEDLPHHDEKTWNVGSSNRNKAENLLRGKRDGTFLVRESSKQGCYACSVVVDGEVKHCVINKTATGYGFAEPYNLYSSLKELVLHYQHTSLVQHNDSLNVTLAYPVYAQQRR
T2 sequence (P42345 1360-2549 limits assumed): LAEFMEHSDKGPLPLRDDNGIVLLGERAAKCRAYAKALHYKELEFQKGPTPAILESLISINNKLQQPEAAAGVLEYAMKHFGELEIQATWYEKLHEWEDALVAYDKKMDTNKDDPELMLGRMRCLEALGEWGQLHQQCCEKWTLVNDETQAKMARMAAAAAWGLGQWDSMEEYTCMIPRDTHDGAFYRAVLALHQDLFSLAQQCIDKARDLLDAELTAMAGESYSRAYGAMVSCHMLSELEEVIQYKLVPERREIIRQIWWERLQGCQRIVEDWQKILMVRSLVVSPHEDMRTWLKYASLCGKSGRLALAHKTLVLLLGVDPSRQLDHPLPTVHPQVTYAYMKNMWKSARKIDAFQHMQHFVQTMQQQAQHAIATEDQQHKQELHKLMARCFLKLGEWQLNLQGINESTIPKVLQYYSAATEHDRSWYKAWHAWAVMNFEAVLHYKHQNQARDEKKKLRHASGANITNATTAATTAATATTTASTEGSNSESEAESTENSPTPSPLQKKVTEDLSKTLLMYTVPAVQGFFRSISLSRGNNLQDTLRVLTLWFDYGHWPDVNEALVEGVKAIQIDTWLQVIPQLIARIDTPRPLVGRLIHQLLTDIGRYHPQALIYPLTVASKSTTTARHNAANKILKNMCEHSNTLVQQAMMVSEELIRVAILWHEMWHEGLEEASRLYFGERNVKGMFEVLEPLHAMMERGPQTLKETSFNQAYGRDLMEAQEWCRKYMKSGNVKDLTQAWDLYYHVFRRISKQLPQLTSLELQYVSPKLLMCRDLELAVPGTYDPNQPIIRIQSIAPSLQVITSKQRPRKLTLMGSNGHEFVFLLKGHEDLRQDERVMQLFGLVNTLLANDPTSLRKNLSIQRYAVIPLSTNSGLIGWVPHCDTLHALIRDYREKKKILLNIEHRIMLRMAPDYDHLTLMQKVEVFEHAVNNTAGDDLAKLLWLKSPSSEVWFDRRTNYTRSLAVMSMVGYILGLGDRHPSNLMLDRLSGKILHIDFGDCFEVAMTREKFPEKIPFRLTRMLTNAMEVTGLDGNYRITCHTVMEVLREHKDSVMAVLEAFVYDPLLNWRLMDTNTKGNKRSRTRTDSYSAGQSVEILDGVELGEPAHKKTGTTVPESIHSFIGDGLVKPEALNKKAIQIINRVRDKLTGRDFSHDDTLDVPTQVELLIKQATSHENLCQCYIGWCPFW
Procedure for PI3Kα: In Vitro PI3K Alphascreen® Assay
The PI3K AlphaScreen® assay (PerkinElmer, Waltham, Mass.) measures the activity of a panel of four phosphoinositide 3-kinases: PI3Kα, PI3Kβ, PI3Kγ, and PI3Kδ. Each of these enzymes phosphorylates the 3′-hydroxyl group on phosphatidylinositiol (4,5)-bisphosphate (PIP2) to produce phosphatidylinositol (3,4,5)-trisphosphate (PIP3). This phosphorylation activity is measured using a GST-tagged PIP3 binding protein (Echelon Biosciences, Salt Lake City, Utah), an anti-GST-tagged Acceptor bead, and streptavidin-Donor bead. […] In the absence of this interaction, proximity of the Donor and Acceptor beads is decreased, producing a loss of luminescent signal which is inversely proportional to PI3K activity.
The enzyme reaction buffer is made using sterile water (Baxter, Deerfield, Ill.) and 50 mM Tris HCl pH 7, 14 mM MgCl2, 2 mM sodium cholate, and 100 mM NaCl. 2 mM DTT is added fresh the day of the experiment. The AlphaScreen® reaction buffer is made using sterile water and 10 mM Tris HCl pH 7.5, 150 mM NaCl, 0.10% Tween 20, and 30 mM EDTA. 1 mM DTT is added fresh the day of the experiment.
The source plates for this assay are 384-well Greiner clear polypropylene plates containing test compounds at 5mM and diluted 1:2 over 22 points. […] Source plates are replicated into 384-well Optiplates (PerkinElmer, Waltham, Mass.), 0.5 μL/well, to make assay-ready plates.
The different PI3K isoforms are each diluted in enzyme reaction buffer to 2× working solutions. […] Two different 2× substrate solutions are made in enzyme reaction buffer. In one solution, PI(4,5)P2 (Echelon Biosciences, Salt Lake City, Utah) is diluted to 10 μM and ATP is diluted to 20 μM. This solution is used in the assays testing PI3Kα and PI3Kβ. In a second solution, PI(4,5)P2 is diluted to 10 μM and ATP is diluted to 8 μM. This solution used in the assays testing PI3Kγ and PI3Kδ.
The AlphaScreen® reaction solutions are made using beads from the anti-GST AlphaScreen® kit (PerkinElmer, Waltham, Mass.). Two solutions are made in Alphascreen reaction buffer to 4× working concentrations. In one solution, biotinylated-IP4 (Echelon Biosciences, Salt Lake City, Utah) is diluted to 40 nM and streptavadin-Donor Beads are diluted to 80 μg/mL. In the second solution, PIP3-binding protein (Echelon Biosciences, Salt Lake City, Utah) is diluted to 40 nM and anti-GST-Acceptor Beads are diluted to 80 μg/mL. 10 μL/well of enzyme reaction buffer is added to Column 24 of the assay ready plates in place of enzyme. This is done for plates in the PI3Kα, β, and 67 assays.
Using a 384-well dispensing Multidrop (Titertek, Huntsville, Ala.), 10 μL/well of 2× enzyme (PI3Kα, β, δ) is added to Columns 1-23 of the appropriate assay ready plates (for PI3Kγ 10 μL is added to Columns 1-24). 10 μL/well of the appropriate substrate solution (the solution with 20 μM ATP for PI3Kα and β assays, and the solution with 8 μM ATP for PI3Kγ and δ assays) is then added to Columns 1-24 of the plates. Plates are then incubated at room temperature for 20 minutes.
In the dark, 10 μL/well of the Donor Bead solution is added to Columns 1-24 of the plates to quench the enzyme reaction. The plates are incubated at room temperature for 30 minutes. Still in the dark, 10 μL/well of the Acceptor Bead solution is also added to Columns 1-24 of the plates. The plates are then incubated in the dark for 1.5 hours. The plates are read on an Envision Multilabel Plate Reader (PerkinElmer, Waltham, Mass.) with a 680 nm excitation filter and a 520-620 nm emission filter.

`Cc1ccccc1OC1CCN(c2ccnc3ccc(-c4cnc(Cl)c(NS(C)(=O)=O)c4)cc23)C1` (stereo not drawn) [Example 80, N-(2-chloro-5-(4-(3-(2-methylphenoxy)-1-pyrrolidinyl)-6-quinolinyl)-3-pyridinyl)methanesulfonamide] yielded a Ki at PI3Kα of 0.0294 µM. The half-inhibitory concentration (IC50) against mTOR stood at 0.389 µM; in experiment [1], 0.704 µM.
For the compound `O=S(=O)(Nc1cc(-c2ccc3nccc(N4CCN(Cc5ccncc5)CC4)c3c2)cnc1Cl)c1ccc(F)cc1` [Example 89, N-(2-chloro-5-(4-(4-(4-pyridinylmethyl)-1-piperazinyl)-6-quinolinyl)-3-pyridinyl)-4-fluorobenzenesulfonamide], the IC50 at mTOR worked out at 0.0039 µM; in experiment [1] it was 0.0223 µM.
In turn, `CS(=O)(=O)Nc1cc(-c2ccc3nccc(-c4ccc(C(F)(F)F)nc4)c3c2)cnc1Cl` [Example 112, N-(2-chloro-5-(4-(6-(trifluoromethyl)-3-pyridinyl)-6-quinolinyl)-3-pyridinyl)methanesulfonamide] returned a Ki at PI3Kα of 0.0021 µM. For the same compound, the IC50 worked out at 0.0021 µM on mTOR and 0.0091 µM in experiment [1].
At PI3Kα, `C[C@@H]1CN(c2ccnc3ccc(-c4cnc(Cl)c(NS(=O)(=O)c5ccc(F)cc5)c4)cc23)C[C@H](C)O1` [Example 96, N-(2-chloro-5-(4-((2R,6S)-2,6-dimethyl-4-morpholinyl)-6-quinolinyl)-3-pyridinyl)-4-fluorobenzenesulfonamide] displayed a Ki of 0.0068 µM. The results for the IC50 (at mTOR; in experiment [1]) were 0.011 µM and 0.0375 µM, respectively.
On to `CS(=O)(=O)Nc1cc(-c2ccc3nccc(-c4ccncc4)c3c2)cnc1Cl` [Example 118, N-(2-Chloro-5-(4-(pyridin-4-yl)quinolin-6-yl)pyridin-3-yl)methanesulfonamide], for which the inhibition constant (Ki) at PI3Kα came to 0.0011 µM. The IC50 against mTOR was 0.0012 µM; in experiment [1] it was 0.0127 µM.
Regarding `COCCN(C)c1ccnc2ccc(-c3cnc(Cl)c(NS(=O)(=O)N(C)CCOC)c3)cc12` [Example 126, N′-(2-chloro-5-(4-((2-methoxyethyl)(methyl)amino)-6-quinolinyl)-3-pyridinyl)-N-(2-methoxyethyl)-N-methylsulfamide], the affinity at PI3Kα, expressed as Ki, was 0.0801 µM. Besides, the IC50 on mTOR is 0.134 µM; in experiment [1] it was 0.669 µM.
Compound `O=S(=O)(Nc1cc(-c2ccc3nccc(N4CCCC(O)CC4)c3c2)cnc1Cl)c1ccc(F)cc1` (stereo not drawn) [Example 95, N-(2-chloro-5-(4-(4-hydroxy-1-azepanyl)-6-quinolinyl)-3-pyridinyl)-4-fluorobenzenesulfonamide] gave a Ki at PI3Kα of 0.0058 µM. The compound further showed an IC50 against mTOR of 0.111 µM.
Regarding `CS(=O)(=O)Nc1cc(-c2ccc3nccc(C4CCOCC4)c3c2)cnc1Cl` [Example 114, N-(2-Chloro-5-(4-(tetrahydro-2H-pyran-4-yl)quinolin-6-yl)pyridin-3-yl)methanesulfonamide], the IC50 on mTOR was determined as 0.0063 µM; in experiment [1] it was 0.0254 µM.
In turn, `O=c1c2cccnc2ccn1-c1cnc(Cl)c(NS(=O)(=O)c2ccc(F)cc2)c1` [Example 137, N-(2-chloro-5-(5-oxo-1,6-naphthyridin-6(5H)-yl)-3-pyridinyl)-4-fluorobenzenesulfonamide] showed a Ki on PI3Kα of 0.548 µM. The compound further registered an IC50 in experiment [1] of 2.98 µM.
Consider `COc1ccc(S(=O)(=O)Nc2cc(-c3ccc4c(c3)OCCO4)cnc2Cl)cc1` [Example 127, N-(2-Chloro-5-(2,3-dihydrobenzo[b][1,4]dioxin-6-yl)pyridin-3-yl)-4-methoxybenzenesulfonamide], for which, at PI3Kα, the affinity, expressed as Ki, was 0.0273 µM. For the same compound, at mTOR, the IC50 stood at 0.0651 µM.
For the compound `O=S(=O)(Nc1cc(-c2ccc3nccc(-c4cccnc4)c3c2)cnc1Cl)c1ccc(F)cc1` [Example 93, N-(2-chloro-5-(4-(3-pyridinyl)-6-quinolinyl)-3-pyridinyl)-4-fluorobenzenesulfonamide], the IC50 was 0.0016 µM on mTOR and 0.0119 µM in experiment [1].
The compound `COCC(C)Nc1ccnc2ccc(-c3cnc(Cl)c(NS(=O)(=O)c4ccc(F)cc4)c3)cc12` (stereo not drawn) [Example 99, N-(2-chloro-5-(4-((2-methoxy-1-methylethyl)amino)-6-quinolinyl)-3-pyridinyl)-4-fluorobenzenesulfonamide] displayed a Ki at PI3Kα of 0.121 µM. This compound came in with an IC50 at mTOR of 2.39 µM.
For `O=S(=O)(Nc1cc(-c2ccc3ncc(-c4ccncc4)nc3c2)cnc1Cl)c1ccc(F)cc1` [Example 121, N-(2-Chloro-5-(3-(pyridin-4-yl)quinoxalin-6-yl)pyridin-3-yl)-4-fluorobenzenesulfonamide], the results for the IC50 (against mTOR; in experiment [1]) were 0.0057 µM and 0.031 µM, respectively.
Taken in the same sequence, the figures for `O=S(=O)(Nc1cc(-c2ccc3ncc(NCCN4CCOCC4)nc3c2)cnc1Cl)c1ccc(F)cc1` [Example 91, N-(2-chloro-5-(3-((2-(4-morpholinyl)ethyl)amino)-6-quinoxalinyl)-3-pyridinyl)-4-fluorobenzenesulfonamide] were 0.0053 µM and 0.075 µM.
Consider `O=S(=O)(Nc1cc(-c2ccc3nccc(OCC4CCSCC4)c3c2)cnc1Cl)c1ccc(F)cc1` [Example 100, N-(2-chloro-5-(4-(tetrahydro-2H-thiopyran-4-ylmethoxy)-6-quinolinyl)-3-pyridinyl)-4-fluorobenzenesulfonamide], for which, on PI3Kα, the affinity, expressed as Ki, was 0.0012 µM. The IC50 against mTOR amounted to 0.04 µM.
With `O=S1(=O)CCC(Oc2ccnc3ccc(-c4cnc(Cl)c(NS(=O)(=O)c5ccc(F)cc5)c4)cc23)C1` (stereo not drawn) [Example 115, N-(2-Chloro-5-(4-(tetrahydrothiophen-1,1-dioxide-3-yloxy)quinolin-6-yl)pyridin-3-yl)-4-fluorobenzenesulfonamide], the IC50 against mTOR was determined as 0.0126 µM; in experiment [1] it was 0.194 µM.
For the compound `O=S(=O)(Nc1cc(N2CCc3ncccc3C2)cnc1Cl)c1ccc(F)cc1` [Example 135, N-(2-Chloro-5-(7,8-dihydro-1,6-naphthyridin-6(5H)-yl)pyridin-3-yl)-4-fluorobenzenesulfonamide], at PI3Kα, the Ki is 0.0638 µM. Also, inhibition against mTOR was half-maximal at 0.218 µM (IC50).
